Measured values published in patent publication US8404829B2, “Predictive and therapeutic markers in ovarian cancer” (The Regents of the University of California, priority 2005, dated 2013).
“Also recorded” adds a separate entry of the source.

Columns and labels:
[1] = test system: ovarian cancer cell lines that do not amplify PVT1; test: High content imaging for apoptosis (Cellomics Multiparameter Apoptosis 1 HitKit), lines that do not amplify PVT1; type: cell-based, human
Description: (§1) A high content fluorescence image analysis system at LBNL (Cellomics, KineticScan) was used to characterize cellular responses to siRNA inhibitors including proliferation rate, apoptotic rate and motility. The KineticScan is an automated imaging instrument that scans through the bottom of clear-bottom 24-well plates, focuses on a field of cells, and acquires images at each selected color channel. The Cellomics software identifies and measures individual features and structures within each cell in a field of cells, so that up to hundreds of cell samples can be analyzed in parallel. The software then tabulates and presents the results in user-defined formats.
(§2) Referring to FIG. 10, PVT siRNA-treated ovarian cell lines were analyzed by high content imaging for apoptosis. Apoptotic cells were detected based on nuclear morphology, mitochondrial mass and/or membrane potential, and f-actin content following staining with the Cellomics Multiparameter Apoptosis 1 HitKit™. Nuclear morphology (i.e., condensation or fragmentation) are measured after staining with Hoechst 33342. Mitochondrial membrane potential and mitochondrial mass are measured after staining with MitoTracker® Red. F-actin is measured after staining with an Alexa Fluor® 488 conjugate of phalloidin (Ax488-ph). Changes in the actin cytoskeleton have been used as a potential parameter related to apoptotic changes. […]

[2] = test system: cell lines that do not amplify or over express PVT1; test: Apoptosis / cell death after PVT1 siRNA, lines without PVT1 amplification; type: cell-based, human; settings: cell lines in which PVT1 is not amplified or over expressed
Procedure: In this system, stock cell lines are transferred from flasks and 5×10^4 cells will be seeded into 24-well cell culture plates and transferred to a multi-plate incubator. Individual wells are treated with 40-120 nM siRNA and 2.5-7.5 μg/ml Lipofectamine 2000 (Invitrogen) in […] Opti-MEM reduced serum medium (Invtrogen) for 4 hours (with or without drug) in order to induce the necessary experimental perturbations. After 4 hours, the Opti-MEM are replaced with complete culture medium and the cells cultured for an additional 44 hours. Cell lysates then are extracted and re-formatted into standard 96-well microtiter plates using a Tecan multi-channel liquid handling system. These plates are then fed separately into RNA transcript, protein expression or cell analysis pipelines. For cellular profiling, treated cell culture plates are transported to a Cellomics High Content Imaging system (see below). […] Important pathway proteins are assessed using western blotting in cases where antibodies are not sufficiently specific for use on protein lysate arrays.
Referring again to FIG. 8, an additional measure of apoptosis can include staining with an Alexa Fluor® 488 conjugate of annexin V (Molecular Probes) and staining with propidium iodide (PI). […] An apoptotic index can be assessed by measuring the fraction of “sub diploid” cells after staining for DNA content using PI as illustrated in FIG. 8A. […]

[3] = test system: OV90, in which MYC and PVT1 are not amplified; cell lines not expressing PVT1; test: Cell cycle / growth after siRNA treatment (BrdUrd/DNA distributions), unamplified lines; type: cell-based, human; settings: for cell cycle progression (BrdUrd/DNA distributions): OV90 (unamplified), 48 hours after siRNA treatment, FIG. 7A
HEY and CAOV4 cells = test: Apoptosis after siRNA treatment (phase contrast, PI DNA content distribution), PVT1 amplified lines; type: cell-based, human; settings: for apoptosis induced DNA fragments (DNA distribution below the G1/diploid peak): CAOV4 cells, FIG. 9A; for induction of apoptosis / cell death: ovarian cancer cell lines in which PVT1 is amplified and over expressed
Procedure: (§3) In this system, stock cell lines are transferred from flasks and 5×10^4 cells will be seeded into 24-well cell culture plates and transferred to a multi-plate incubator. Individual wells are treated with 40-120 nM siRNA and 2.5-7.5 μg/ml Lipofectamine 2000 (Invitrogen) in […] Opti-MEM reduced serum medium (Invtrogen) for 4 hours (with or without drug) in order to induce the necessary experimental perturbations. After 4 hours, the Opti-MEM are replaced with complete culture medium and the cells cultured for an additional 44 hours. Cell lysates then are extracted and re-formatted into standard 96-well microtiter plates using a Tecan multi-channel liquid handling system. These plates are then fed separately into RNA transcript, protein expression or cell analysis pipelines. For cellular profiling, treated cell culture plates are transported to a Cellomics High Content Imaging system (see below). Transcript profiling is accomplished using Affymetrix U133A/B arrays processed using the Affymetrix High Throughput Analysis system (installed at LBNL in December 2004 under an Affymetrix early access agreement). Protein profiling is accomplished using reverse phase protein at MD Anderson using lysate array technology in cases where suitable antibodies exist. Important pathway proteins are assessed using western blotting in cases where antibodies are not sufficiently specific for use on protein lysate arrays.
(§4) A Becton Dickinson cytometer can be used to measure DNA/BrdUrd distributions and/or DNA distributions during treatment. […] For BrdUrd/DNA analysis, cells are pulse labeled for 30 min. with 1 μM BrdUrd, fixed in 70% ethanol, treated with RNase, denatured and stained with propidium iodide (PI) and a fluorescently labeled antibody against BrdUrd as described in Dolbeare, F., Gratzner, H., Pallavicini, M. G. & Gray, J. W. Flow cytometric measurement of total DNA content and incorporated bromodeoxyuridine. Proc Natl Acad Sci USA 80, 5573-7 (1983), and placed in 96 well trays for analysis.
Referring again to FIG. 8, an additional measure of apoptosis can include staining with an Alexa Fluor® 488 conjugate of annexin V (Molecular Probes) and staining with propidium iodide (PI). PI is impermeable to apoptotic cells and live cells, but can enter and bind nucleic acids in necrotic cells. An apoptotic index can be assessed by measuring the fraction of “sub diploid” cells after staining for DNA content using PI as illustrated in FIG. 8A. Cells are fixed in 70% ethanol, treated with RNAse and placed in 96-well trays for DNA content analysis.

[4] = test system: ovarian cancer cell lines that amplify PVT1; test: High content imaging for apoptosis (Cellomics Multiparameter Apoptosis 1 HitKit), lines that amplify PVT1; type: cell-based, human
Description: as §1, §2

[5] = test system: CAOV4 and HEY cell lines in which PVT1 and MYC are highly amplified; test: Cell cycle / proliferation after siRNA treatment (BrdUrd/DNA distributions), PVT1/MYC amplified lines; type: cell-based, human; settings: for cell cycle progression (BrdUrd/DNA distributions): CAOV4 and HEY, 48 hours after siRNA treatment, FIG. 7A; for cell proliferation / G1-phase block: ovarian cancer cell lines in which PVT1 is amplified and over expressed
Procedure: as §3, §4
In FIGS. 7B and 7C, the BrdU data is measuring proportions of cell cycle phases of ovarian cancer cell lines that overexpress PVT1. Referring to the graphs in FIGS. 7B and 7C, cells were left untreated (control, blue bar), treated with lipofectamine 2000 (lipo, purple bar) and green fluorescent protein (GFP; green bar) as controls or treated with PVT1 siRNA (PVT1 si, yellow bar, SEQ ID NO: 3 and 4). The error bars are standard deviation values from more than one experiment. If there are no error bars on a column, it means the experiment was not repeated.

HEYA8 or SKOV3ip1 tumors = test: Therapeutic study in ovarian tumor xenografts (tumor size); type: in vivo, mice; settings: siRNA 150 μg/kg twice weekly, paclitaxel 100 μg weekly, four weeks
Procedure: For therapeutic studies, mice were injected with HEYA8 or SKOV3ip1 cells. One week later, mice were treated twice weekly with DOPC-EPHA2 siRNA (150 μg/kg) alone or in combination with weekly paclitaxel (100 μg), for four consecutive weeks.

Row | Molecule | F-actin content and thereby apoptosis ([1]; cell lines having no increased PVT1 amplification, FIG. 10A) | apoptotic levels (nuclear morphology, mitochondrial mass/potential, f-actin) ([1]; cell lines that do not amplify PVT1) | induction of apoptosis / cell death [2] | induction of apoptosis / cell death ([2]; listed as siRNA against PVT1) | cell cycle progression (BrdUrd/DNA distributions) [3] | growth inhibition ([3]; cell lines that do not amplify or over express PVT1) | effect on cell cycle (S phase, BrdU) ([3]; ovarian cancer cell lines not expressing PVT1, FIG. 7C) | apoptosis induced DNA fragments (DNA distribution below the G1/diploid peak) (HEY and CAOV4 cells) | apoptotic blebbing (phase contrast photomicrographs) (HEY and CAOV4 cells; HEY cells, treated 48 hours, FIG. 8) | induction of apoptosis / cell death (HEY and CAOV4 cells) | induction of apoptosis / cell death (HEY and CAOV4 cells; listed as siRNA against PVT1) | induction of apoptosis / cell death (HEY and CAOV4 cells; listed as siRNAs against PVT1) | apoptotic levels (nuclear morphology, mitochondrial mass/potential, f-actin) ([4]; cell lines that amplify PVT1, FIG. 10C) | F-actin content ([4]; cell lines which overamplify PVT1, after PVT1 siRNA) | cell cycle progression (BrdUrd/DNA distributions) [5] | S phase proportion (BrdU) ([5]; cell lines overexpressing PVT1, vs untreated, lipofectamine 2000 and GFP controls, FIG. 7B) | cell proliferation / G1-phase block [5] | cell proliferation / G1-phase block ([5]; listed as siRNAs against PVT1) | effect on tumor size (HEYA8 or SKOV3ip1 tumors)
1 | PVT1 siRNA: siRNA against PVT1; sense CAGCCAUCAUGAUGGUACU (SEQ ID NO: 3), antisense AGUACCAUCAUGAUGGCUG (SEQ ID NO: 4) (listed as RNA, chemistry not given here) | remained low | normal apoptotic levels | do not inhibit growth or induce cell death | no apoptotic response | not in the unamplified line | do not inhibit growth | does not affect the cell cycle | Apoptosis induced DNA fragments are present after PVT1 inhibition | apoptotic blebbing after siRNA inhibition of PVT1 is apparent | inducing cell death; also recorded: induces apoptosis | induced apoptosis | inducing apoptosis | increased apoptotic levels, higher than levels of cells treated with paclitaxel | Increased F-actin content | strongly inhibited | much shorter than in the 3 control columns | inhibit cell proliferation by blocking cell in the G1-phase of the cell cycle; also recorded: blocks cells in the G1 phase of the cell cycle | particularly effective in inhibiting proliferation | –
2 | CC(=O)O[C@H]1C(=O)[C@@]2(C)[C@H]([C@H](OC(=O)c3ccccc3)[C@]3(O)C[C@H](OC(=O)[C@H](O)[C@@H](NC(=O)c4ccccc4)c4ccccc4)C(C)=C1C3(C)C)[C@]1(OC(C)=O)CO[C@@H]1C[C@@H]2O [paclitaxel] | – | – | – | – | – | – | – | – | – | – | – | – | – | – | – | – | – | – | effective in reducing tumor size
3 | MYC siRNA: siRNA against c-myc; sense GAGGCGAACACACAACGUC (SEQ ID NO: 18), antisense GACGUUGUGUGUUCGCCUC (SEQ ID NO: 19) (listed as RNA, chemistry not given here) | – | – | – | – | not in the unamplified line | – | – | not after MYC inhibition | – | does not induce apoptosis | – | – | – | – | strongly inhibited | – | blocks cells in the G1-phase of the cell cycle | – | –
